Organism: Rattus norvegicus
Assay: DrugMatrix - Regimen: Daily Repeat
Format: toxicity, organism-based, Sprague-Dawley
Design: regimen Daily Repeat, gender Male, age 6-8 weeks
Conditions: in vivo, po, route oral GAVAGE, vehicle 100 % SALINE; for ABSOLUTE BASOPHIL / ABSOLUTE EOSINOPHIL / ABSOLUTE LYMPHOCYTE / ABSOLUTE MONOCYTE / ABSOLUTE SEGMENTED NEUTROPHIL / BASOPHIL / EOSINOPHIL / ERYTHROCYTE COUNT / HEMATOCRIT / HEMOGLOBIN / LEUKOCYTE COUNT / MEAN CORPUSCULAR HEMOGLOBIN / MEAN CORPUSCULAR HEMOGLOBIN CONCENTRATION / MEAN CORPUSCULAR VOLUME / MONOCYTE / NEUTROPHIL / NUCLEATED RED BLOOD CELLS / PLATELET COUNT: tissue Blood; for ALANINE AMINOTRANSFERASE / ALBUMIN / ALKALINE PHOSPHATASE / ASPARTATE AMINOTRANSFERASE / BLOOD UREA NITROGEN / CARBON DIOXIDE / CHLORIDE / CHOLESTEROL / CREATINE PHOSPHOKINASE / CREATININE / GLUCOSE / LACTATE DEHYDROGENASE / LIPASE / PHOSPHORUS / POTASSIUM / SODIUM / TOTAL BILIRUBIN / TOTAL PROTEIN / URIC ACID: tissue Plasma
[1] = 0 mg/kg, 72 h, dose level Control, time 3 day
[2] = 0 mg/kg, 120 h, dose level Control, time 5 day
[3] = 40 mg/kg, 72 h, dose level Low, time 3 day

Oc1ccccc1O [CATECHOL]
ABSOLUTE BASOPHIL [1]: 0 CELLS/uL | ABSOLUTE EOSINOPHIL [1]: 65.67 CELLS/uL | ABSOLUTE LYMPHOCYTE [1]: 17283.5 CELLS/uL | ABSOLUTE MONOCYTE [1]: 0 CELLS/uL | ABSOLUTE SEGMENTED NEUTROPHIL [1]: 1284.17 CELLS/uL | BASOPHIL [1]: 0% | EOSINOPHIL [1]: 0.33% | ERYTHROCYTE COUNT [1]: 5.46 x10E6/uL | HEMATOCRIT [1]: 34.28% | HEMOGLOBIN [1]: 13.78 G/DL | LEUKOCYTE COUNT [1]: 18.63 x10E3/uL | MEAN CORPUSCULAR HEMOGLOBIN [1]: 25.3 pg | MEAN CORPUSCULAR HEMOGLOBIN CONCENTRATION [1]: 40.22 G/DL | MEAN CORPUSCULAR VOLUME [1]: 62.87 fL | MONOCYTE [1]: 0% | NEUTROPHIL [1]: 7% | NUCLEATED RED BLOOD CELLS [1]: 0 /100WBC | PLATELET COUNT [1]: 1244.83 x10E3/uL | ALANINE AMINOTRANSFERASE [1]: 52.83 u/L | ALBUMIN [1]: 4 G/DL | ALKALINE PHOSPHATASE [1]: 327.67 u/L | ASPARTATE AMINOTRANSFERASE [1]: 78.83 u/L | BLOOD UREA NITROGEN [1]: 13.83 mg/dL | CARBON DIOXIDE [1]: 26.67 mmol/L | CHLORIDE [1]: 99.67 MEQ/L | CHOLESTEROL [1]: 69 mg/dL | CREATINE PHOSPHOKINASE [1]: 350.17 u/L | CREATININE [1]: 0.21 mg/dL | GLUCOSE [1]: 173.83 mg/dL | LACTATE DEHYDROGENASE [1]: 168.33 u/L | LIPASE [1]: 11 u/L | PHOSPHORUS [1]: 12.7 mg/dL | POTASSIUM [1]: 6.88 MEQ/L | SODIUM [1]: 141.68 MEQ/L | TOTAL BILIRUBIN [1]: 0.22 mg/dL | TOTAL PROTEIN [1]: 6.02 G/DL | URIC ACID [1]: 1.9 mg/dL | ABSOLUTE BASOPHIL [2]: 0 CELLS/uL | ABSOLUTE EOSINOPHIL [2]: 14.83 CELLS/uL | ABSOLUTE LYMPHOCYTE [2]: 12880 CELLS/uL | ABSOLUTE MONOCYTE [2]: 90.67 CELLS/uL | ABSOLUTE SEGMENTED NEUTROPHIL [2]: 864.5 CELLS/uL | BASOPHIL [2]: 0% | EOSINOPHIL [2]: 0.17% | ERYTHROCYTE COUNT [2]: 5.83 x10E6/uL | HEMATOCRIT [2]: 35.87% | HEMOGLOBIN [2]: 14 G/DL | LEUKOCYTE COUNT [2]: 13.85 x10E3/uL | MEAN CORPUSCULAR HEMOGLOBIN [2]: 24.03 pg | MEAN CORPUSCULAR HEMOGLOBIN CONCENTRATION [2]: 39.03 G/DL | MEAN CORPUSCULAR VOLUME [2]: 61.53 fL | MONOCYTE [2]: 0.67% | NEUTROPHIL [2]: 6.67% | NUCLEATED RED BLOOD CELLS [2]: 0 /100WBC | PLATELET COUNT [2]: 1041.83 x10E3/uL | ALANINE AMINOTRANSFERASE [2]: 56 u/L | ALBUMIN [2]: 4.47 G/DL | ALKALINE PHOSPHATASE [2]: 319 u/L | ASPARTATE AMINOTRANSFERASE [2]: 89.17 u/L | BLOOD UREA NITROGEN [2]: 15.2 mg/dL | CARBON DIOXIDE [2]: 24 mmol/L | CHLORIDE [2]: 104.4 MEQ/L | CHOLESTEROL [2]: 69.5 mg/dL | CREATINE PHOSPHOKINASE [2]: 295.83 u/L | CREATININE [2]: 0.21 mg/dL | GLUCOSE [2]: 124.33 mg/dL | LACTATE DEHYDROGENASE [2]: 325.5 u/L | LIPASE [2]: 14.67 u/L | PHOSPHORUS [2]: 11.45 mg/dL | POTASSIUM [2]: 6.74 MEQ/L | SODIUM [2]: 151.4 MEQ/L | TOTAL BILIRUBIN [2]: 0.23 mg/dL | TOTAL PROTEIN [2]: 6.45 G/DL | URIC ACID [2]: 1.18 mg/dL | ABSOLUTE BASOPHIL [3]: 0 CELLS/uL | ABSOLUTE EOSINOPHIL [3]: 0 CELLS/uL | ABSOLUTE LYMPHOCYTE [3]: 14994 CELLS/uL | ABSOLUTE MONOCYTE [3]: 0 CELLS/uL | ABSOLUTE SEGMENTED NEUTROPHIL [3]: 739.33 CELLS/uL | BASOPHIL [3]: 0% | EOSINOPHIL [3]: 0% | ERYTHROCYTE COUNT [3]: 5.48 x10E6/uL | HEMATOCRIT [3]: 33.5% | HEMOGLOBIN [3]: 13.33 G/DL | LEUKOCYTE COUNT [3]: 15.73 x10E3/uL | MEAN CORPUSCULAR HEMOGLOBIN [3]: 24.37 pg | MEAN CORPUSCULAR HEMOGLOBIN CONCENTRATION [3]: 39.87 G/DL | MEAN CORPUSCULAR VOLUME [3]: 61.1 fL | MONOCYTE [3]: 0% | NEUTROPHIL [3]: 4.67% | NUCLEATED RED BLOOD CELLS [3]: 0 /100WBC | PLATELET COUNT [3]: 1095.33 x10E3/uL | ALANINE AMINOTRANSFERASE [3]: 43.67 u/L | ALBUMIN [3]: 4.2 G/DL | ALKALINE PHOSPHATASE [3]: 287 u/L | ASPARTATE AMINOTRANSFERASE [3]: 70.67 u/L | BLOOD UREA NITROGEN [3]: 13.33 mg/dL | CARBON DIOXIDE [3]: 23.67 mmol/L | CHLORIDE [3]: 101 MEQ/L | CHOLESTEROL [3]: 74 mg/dL | CREATINE PHOSPHOKINASE [3]: 350.33 u/L | CREATININE [3]: 0.22 mg/dL | GLUCOSE [3]: 176.67 mg/dL | LACTATE DEHYDROGENASE [3]: 113.33 u/L | LIPASE [3]: 10.33 u/L | PHOSPHORUS [3]: 11.93 mg/dL | POTASSIUM [3]: 6.1 MEQ/L | SODIUM [3]: 140.57 MEQ/L | TOTAL BILIRUBIN [3]: 0.17 mg/dL | TOTAL PROTEIN [3]: 6.13 G/DL | URIC ACID [3]: 2 mg/dL

From ChEMBL document CHEMBL3885881, “DrugMatrix”
